Source: PubChem BioAssay AID248 (DTP/NCI, 2004)
Where “and” joins values, the source holds several entries; their conditions need not be identical. Equal entries are not always repeated. Inconclusive results and toxic doses are left out. No stated cut-off is given here; in the data, active means T/C of 150% or more; inactive means T/C below 125%.

Tested on: L1210 leukemia ip in BDF1 mice, survival T/C
Assay: NCI In Vivo Anticancer Drug Screen. Data for tumor model L1210 Leukemia (intraperitoneal) in B6D2F1 (BDF1) mice
Details: endpoint: mean survival time, higher = longer survival
Outline: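 Ratio derived from survival: compound-dosed mice over vehicle-dosed mice, all bearing a transplantable tumor.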

[1] = dose: 100.0 mg/kg/injection, schedule: Q01DX009 (ip), vehicle: Klucel (hydroxypropylcellulose) (HPC)
[2] = dose: 100.0 mg/kg/injection, schedule: Q04DX003 (ip), vehicle: Klucel (hydroxypropylcellulose) (HPC)
[3] = dose: 200.0 mg/kg/injection, schedule: Q01DX009 (ip), vehicle: Klucel (hydroxypropylcellulose) (HPC)
[4] = dose: 200.0 mg/kg/injection, schedule: Q04DX003 (ip), vehicle: Klucel (hydroxypropylcellulose) (HPC)
[5] = dose: 400.0 mg/kg/injection, schedule: Q01DX009 (ip), vehicle: Klucel (hydroxypropylcellulose) (HPC)
[6] = dose: 400.0 mg/kg/injection, schedule: Q04DX003 (ip), vehicle: Klucel (hydroxypropylcellulose) (HPC)
[7] = dose: 50.0 mg/kg/injection, schedule: Q01DX001 (ip), vehicle: saline
[8] = dose: 100.0 mg/kg/injection, schedule: Q01DX001 (ip), vehicle: saline
[9] = dose: 200.0 mg/kg/injection, schedule: Q01DX001 (ip), vehicle: saline
[10] = dose: 400.0 mg/kg/injection, schedule: Q01DX001 (ip), vehicle: saline
[11] = dose: 100.0 mg/kg/injection, schedule: Q04DX002 (ip), vehicle: Klucel (hydroxypropylcellulose) (HPC)
[12] = dose: 200.0 mg/kg/injection, schedule: Q04DX002 (ip), vehicle: Klucel (hydroxypropylcellulose) (HPC)
[13] = dose: 400.0 mg/kg/injection, schedule: Q04DX002 (ip), vehicle: Klucel (hydroxypropylcellulose) (HPC)
[14] = dose: 50.0 mg/kg/injection, schedule: Q01DX009 (ip), vehicle: Klucel (hydroxypropylcellulose) (HPC)
[15] = dose: 100.0 mg/kg/injection, schedule: Q04DX003 (ip), vehicle: saline with Tween-80
[16] = dose: 200.0 mg/kg/injection, schedule: Q04DX003 (ip), vehicle: saline with Tween-80

Measured: T/C

Cc1cc(C(C)(C)C)cc(C)c1O
inactive: [1] 97 % of control | [2] 95 % of control | [3] 100 % of control | [4] 95 % of control | [5] 97 % of control | [6] 95 % of control

O=C1CNCSC1
inactive: dose: 100.0 mg/kg/injection, schedule: Q04DX002 (ip), vehicle: saline 102 % of control | dose: 200.0 mg/kg/injection, schedule: Q04DX002 (ip), vehicle: saline 115 % of control | dose: 400.0 mg/kg/injection, schedule: Q04DX002 (ip), vehicle: saline 94 % of control

CCOC(=O)c1ccc(NP(=S)(OCC)OCC)cc1
inactive: dose: 50.0 mg/kg/injection, schedule: Q01DX009 (ip), vehicle: saline with Tween-80 94 % of control | dose: 100.0 mg/kg/injection, schedule: Q01DX009 (ip), vehicle: saline with Tween-80 94 % of control | dose: 200.0 mg/kg/injection, schedule: Q01DX009 (ip), vehicle: saline with Tween-80 96 % of control

CCSC(C(Nc1ccc([N+](=O)[O-])cc1[N+](=O)[O-])C(O)C(O)C(O)CO)n1cc(C)c(=O)[nH]c1=O (configuration not stated)
inactive: [7] 97 % of control | [8] 100 % of control | [9] 100 % of control | [10] 100 % of control

COC(=O)C1CCC2(C)CCC(=O)C(C)C2C1 (configuration not stated)
inactive: dose: 100.0 mg/kg/injection, schedule: Q01DX001 (ip), vehicle: Klucel (hydroxypropylcellulose) (HPC) 101 % of control | [2] 104 % of control | dose: 200.0 mg/kg/injection, schedule: Q01DX001 (ip), vehicle: Klucel (hydroxypropylcellulose) (HPC) 104 % of control | [4] 106 % of control | dose: 400.0 mg/kg/injection, schedule: Q01DX001 (ip), vehicle: Klucel (hydroxypropylcellulose) (HPC) 92 % of control | [6] 104 % of control

NCCCC(N)C(=O)NCCCCCCNCCCCCCNC(=O)C(N)CCCN (configuration not stated)
inactive: dose: 0.38 mg/kg/injection, schedule: Q01DX Z (ip), vehicle: saline 94 % of control | dose: 0.75 mg/kg/injection, schedule: Q01DX Z (ip), vehicle: saline 102 % of control | dose: 1.5 mg/kg/injection, schedule: Q01DX Z (ip), vehicle: saline 98 % of control | dose: 3.0 mg/kg/injection, schedule: Q01DX Z (ip), vehicle: saline 100 % of control and 106 % of control | dose: 10.0 mg/kg/injection, schedule: Q01DX Z (ip), vehicle: saline 93 % of control | dose: 30.0 mg/kg/injection, schedule: Q01DX Z (ip), vehicle: saline 96 % of control | [7] 101 % of control | [8] 98 % of control | dose: 100.0 mg/kg/injection, schedule: Q01DX Z (ip), vehicle: saline 91 % of control | [9] 95 % of control

CN(C)c1ccc(C=C2c3ccccc3-c3ccccc32)cc1
inactive: [2] 97 % of control | [4] 96 % of control | [6] 94 % of control

O=[N+]([O-])c1cc2c(cc1Br)-c1ccccc1C2
inactive: dose: 100.0 mg/kg/injection, schedule: Q01DX005 (ip), vehicle: Klucel (hydroxypropylcellulose) (HPC) 98 % of control | [11] 93 % of control | dose: 200.0 mg/kg/injection, schedule: Q01DX005 (ip), vehicle: Klucel (hydroxypropylcellulose) (HPC) 94 % of control | [12] 111 % of control | dose: 400.0 mg/kg/injection, schedule: Q01DX005 (ip), vehicle: Klucel (hydroxypropylcellulose) (HPC) 122 % of control | [13] 117 % of control

C=CCOCC(O)CN(CC)c1ccccc1 (configuration not stated)
inactive: [14] 95 % of control | [1] 96 % of control | [2] 100 % of control | [3] 94 % of control and 102 % of control | [4] 102 % of control | [5] 90 % of control | [6] 100 % of control

NC(=O)Cn1cnc2c(=S)nc[nH]c21
inactive: dose: 6.25 mg/kg/injection, schedule: Q01DX009 (ip), vehicle: saline with Tween-80 109 % of control | dose: 12.5 mg/kg/injection, schedule: Q01DX009 (ip), vehicle: saline with Tween-80 104 % of control | dose: 12.5 mg/kg/injection, schedule: Q04DX003 (ip), vehicle: saline with Tween-80 104 % of control | dose: 25.0 mg/kg/injection, schedule: Q01DX009 (ip), vehicle: saline with Tween-80 101 % of control | dose: 25.0 mg/kg/injection, schedule: Q04DX003 (ip), vehicle: saline with Tween-80 102 % of control

CC(=O)OC1CCC2(C)C(=CCC3C2CCC2(C)C3CC(SCC(=O)O)C2SCC(=O)O)C1 (configuration not stated)
inactive: dose: 100.0 mg/kg/injection, schedule: Q04DX003 (sc), vehicle: steriod suspending solution 98 % of control | dose: 200.0 mg/kg/injection, schedule: Q04DX003 (sc), vehicle: steriod suspending solution 106 % of control | dose: 400.0 mg/kg/injection, schedule: Q04DX003 (sc), vehicle: steriod suspending solution 106 % of control

N#Cc1csc(CCNC(=O)c2ccccc2)n1
inactive: dose: 100.0 mg/kg/injection, schedule: Q01DX001 (ip), vehicle: saline with Tween-80 105 % of control | [15] 100 % of control | dose: 200.0 mg/kg/injection, schedule: Q01DX001 (ip), vehicle: saline with Tween-80 104 % of control | [16] 93 % of control | dose: 400.0 mg/kg/injection, schedule: Q01DX001 (ip), vehicle: saline with Tween-80 93 % of control | dose: 400.0 mg/kg/injection, schedule: Q04DX003 (ip), vehicle: saline with Tween-80 94 % of control

CCC(C)C(CCCCN1CCCC1)(CNC(=O)CN(CC)CC)c1cccc2ccccc12 (configuration not stated)
inactive: dose: 12.5 mg/kg/injection, schedule: Q01DX009 (ip), vehicle: saline 95 % of control | dose: 12.5 mg/kg/injection, schedule: Q04DX003 (ip), vehicle: saline 92 % of control | dose: 25.0 mg/kg/injection, schedule: Q01DX009 (ip), vehicle: saline 101 % of control | dose: 25.0 mg/kg/injection, schedule: Q04DX003 (ip), vehicle: saline 93 % of control | dose: 50.0 mg/kg/injection, schedule: Q01DX009 (ip), vehicle: saline 106 % of control | dose: 50.0 mg/kg/injection, schedule: Q04DX003 (ip), vehicle: saline 92 % of control

Cc1c(Cl)c(Cl)c(NS(=O)(=O)c2ccccc2)c(NS(=O)(=O)c2ccccc2)c1Cl
inactive: [1] 95 % of control | [3] 103 % of control | [5] 100 % of control

COC(=O)c1ccc(C)c(-n2c(-c3ccccc3)nnc2-c2ccccc2)c1
inactive: [14] 102 % of control | [1] 93 % of control | [2] 95 % of control | [3] 95 % of control | [4] 92 % of control | [6] 97 % of control

COc1cc(/C=C\C(=O)c2cccc([N+](=O)[O-])c2)cc(OC)c1OC
inactive: [11] 96 % of control | [12] 89 % of control | [13] 100 % of control

Sc1ccc2ccccc2c1CN(Cc1ccccc1)Cc1c(S)ccc2ccccc12
inactive: [8] 91 % of control | [9] 90 % of control | [10] 91 % of control

Cc1cccc(Cl)c1NC(N)=O
inactive: [1] 102 % of control | [2] 103 % of control | [3] 102 % of control | [4] 94 % of control | [5] 97 % of control | [6] 95 % of control

O=C(O)c1cc2c(Br)cccc2c2cc(C(F)(F)F)ccc12
inactive: [15] 97 % of control | [16] 113 % of control

N#CCCN(CCC#N)c1ccccc1
inactive: dose: 100.0 mg/kg/injection, schedule: Q01DX009 (ip), vehicle: saline 94 % of control | dose: 200.0 mg/kg/injection, schedule: Q01DX009 (ip), vehicle: saline 102 % of control | dose: 400.0 mg/kg/injection, schedule: Q01DX009 (ip), vehicle: saline 107 % of control

C[N+](C)(C)CCSc1ccc2c3c(cccc13)C(=O)c1ccccc1-2
inactive: dose: 12.5 mg/kg/injection, schedule: Q04DX002 (ip), vehicle: saline 107 % of control | dose: 25.0 mg/kg/injection, schedule: Q04DX002 (ip), vehicle: saline 104 % of control | dose: 50.0 mg/kg/injection, schedule: Q04DX002 (ip), vehicle: saline 86 % of control
